This is an account of results in paper PMC4924314, “Vertebrate TFPI-2 C-terminal peptides exert therapeutic applications against Gram-negative infections” (BMC Microbiology, 2016).

In one experiment the test system is E. coli ATCC 25922. Briefly: Viable count analysis in mouse plasma. It counts as cell-based, Escherichia coli. To be noted: E. coli ATCC 25922, viable count, mouse plasma (Figure S2). As to the method: E. coli were grown to mid-exponential phase in Todd-Hewitt (TH). Bacteria were washed and diluted in 10 mM Tris, pH 7.4 either alone or with 20 % human or mouse (BALB/c) citrate-plasma. Bacterial (2 × 10^6 cfu/ml) were incubated in 50 μl, at 37 °C for 1 h with the C-terminal TFPI-2 derived peptides at the indicated concentrations. Serial dilutions of the incubation mixture were plated on TH agar, followed by incubation at 37 °C overnight and cfu determination. Additional file 1: Figure S1. Phylogenetic tree analysis of full-length and reminder protein except C-terminal TFPI-2 from vertebrates. Phylogenetic tree from 72 vertebrate TFPI-2 species was constructed using Neighbour-Joining tree with 1000 bootstrap replications on MEGA6. (PDF 54 kb) Additional file 2: Figure S2. Activities of TFPI-2 C-terminal derived peptides in mouse plasma. (Left) The bactericidal activity of mouse VKG24 peptide was assessed in physiological buffer conditions using viable count analysis. E. coli ATCC 25922 were grown to mid-logarithmic phase and incubated with varying concentrations of peptide. The antimicrobial activity was determined by plating serial dilutions of bacteria on TH agar plates and number of cfu was counted after overnight incubation. (Right) The activated partial thromboplastin time (aPTT) was determined by addition of buffer or 50 μM of VKG24 peptide to mouse plasma. […]

In experiment [1] the test system is intrinsic pathway of coagulation. Briefly: Activated partial thromboplastin time (aPTT) in mouse plasma. The format is biochemical. To be noted: peptide 50 μM, n = 3 (Figure S2). As to the method: All clotting times were analyzed using a coagulometer (Amelung, Lemgo, Germany). For determination of activated partial thromboplastin time (aPTT), 100 μl of a kaolin-containing solution (Technoclone) was added to the 100 μl of fresh citrate plasma or citrate plasma peptide mix and incubated at 37 °C for 200 s before clot formation was initiated by adding 100 μl of 30 mM fresh CaCl2 solution. For detection of prothrombin time (PT, thromboplastin reagent (Trinity Biotech)) 100 μl of fresh citrate plasma were incubated 60 s at 37 °C before clot formation was initiated by adding 100 μl of clotting reagent. Additional file 1: Figure S1. Phylogenetic tree analysis of full-length and reminder protein except C-terminal TFPI-2 from vertebrates. Phylogenetic tree from 72 vertebrate TFPI-2 species was constructed using Neighbour-Joining tree with 1000 bootstrap replications on MEGA6. (PDF 54 kb) Additional file 2: Figure S2. […] (Left) The bactericidal activity of mouse VKG24 peptide was assessed in physiological buffer conditions using viable count analysis. […] The antimicrobial activity was determined by plating serial dilutions of bacteria on TH agar plates and number of cfu was counted after overnight incubation. (Right) The activated partial thromboplastin time (aPTT) was determined by addition of buffer or 50 μM of VKG24 peptide to mouse plasma. […]

Experiment [2] deals with E. coli LPS-induced septic shock in Balb/c mice. Briefly: LPS-induced septic shock mouse model (survival, weight). It counts as in vivo. To be noted: 10 mg/kg E. coli LPS i.p. The procedure: (§1) Fig. 6 Treatment of LPS-induced septic shock mice with a mouse TFPI-2 derived peptide. Septic shock in Balb/c mice was induced by i.p. injection of 10 mg/kg E. coli LPS. […] Statistical comparisons of survival curves were performed using the Mantel-Cox’s test. ***P ≤ 0.0003. b Weight was determined daily. c Clotting times of aPTT and PT was measured in citrate plasma 24 h after LPS injection (n = 8). d The indicated cytokines were analyzed in plasma 24 h after LPS injection (n = 8). Statistical analysis for C-D, one-way ANOVA with Tukey’s multiple comparisons post-test was used. **P ≤ 0.003, ****P ≤ 0.0001
(§2) Male/female balb/c mice (8 weeks, 21 ± 5 g) were injected intraperitoneally (i.p.) with 10 mg E. coli 0111:B4 LPS (Sigma) per kg of body weight. Thirty minutes after LPS injection, 0.5 mg VKG24 (25 mg/kg) or PBS buffer alone (control) were injected i.p. into the mice. Status and weight were monitored daily for seven days. Mice where immobilization and/or shaking was observed were euthanized by an overdose of isoflurane (Abbott) and counted as non-survivors. For determination of cytokine levels in mouse plasma, animals were sacrificed 24 h after LPS injection. The blood was collected immediately by cardiac puncture into citrate tubes.

Experiment [3] deals with intrinsic and extrinsic coagulation pathways. Put plainly: Clotting times (aPTT, PT) in citrate plasma of LPS-injected mice. The format is in vivo, mouse. To be noted: peptide ~25 mg/kg i.p. As to the method:
Fig. 6 Treatment of LPS-induced septic shock mice with a mouse TFPI-2 derived peptide. […] Statistical analysis for C-D, one-way ANOVA with Tukey’s multiple comparisons post-test was used. **P ≤ 0.003, ****P ≤ 0.0001
as §2
All clotting times were analyzed using a coagulometer (Amelung, Lemgo, Germany). For determination of activated partial thromboplastin time (aPTT), 100 μl of a kaolin-containing solution (Technoclone) was added to the 100 μl of fresh citrate plasma or citrate plasma peptide mix and incubated at 37 °C for 200 s before clot formation was initiated by adding 100 μl of 30 mM fresh CaCl2 solution. For detection of prothrombin time (PT, thromboplastin reagent (Trinity Biotech)) 100 μl of fresh citrate plasma were incubated 60 s at 37 °C before clot formation was initiated by adding 100 μl of clotting reagent.

Experiment [4] concerns IL-6, MCP-1, IFN-γ, IL-10. Briefly: Cytokine assay in plasma of LPS-injected mice. The format is in vivo, mouse. The settings on record: 24 h after LPS injection, peptide ~25 mg/kg i.p., n = 8. As to the method: as §1, §2
Cytokines IL-6, IL-10, MCP-1, INF-γ and TNF-α were measured in plasma from mice infected by E. coli LPS (with or without peptide treatment) using the Cytometric bead array; mouse inflammation kit (Becton Dickinson AB) according to the manufacturer’s instructions. All plasma samples were stored at −80 °C before the analysis.

The mark [5] stands for this setting: citrate plasma 24 h after LPS injection, n = 8.

Take “VKGWKKPKRWKIGDFLPRFWKHLS [VKG24, mouse TFPI-2 C-terminal derived peptide (O35536)]”: the “antimicrobial activity in mouse plasma” value in the experiment with E. coli ATCC 25922 is recorded as “potent”. In addition, the “anti-coagulant activity in mouse plasma (aPTT)” value in experiment [1] was “potent”. In addition, the survival rate entry in experiment [2] (peptide 0.5 mg/mouse (~25 mg/kg) i.p. 30 min after LPS, monitored 7 days) is listed as “dramatic improvement”. For the same sequence, the body weight result in experiment [2] (peptide ~25 mg/kg i.p. 30 min after LPS, weight determined daily) is given as “started regaining their weight from day three”. Besides, in experiment [3] (setting [5]), the “coagulation PT time” value is listed as “significantly decreased” and the “coagulation aPTT time” value is “significantly decreased”. Further, the “coagulation aPTT and PT levels in survivors” value in experiment [3] (survivors) is “completely normalized”. Moreover, in experiment [4], the IFN-γ in plasma result is on record as “significant reduction”, the IL-6 in plasma entry is recorded as “significant reduction”, the IL-10 in plasma result is given as “significant reduction” and the MCP-1 in plasma result was “significant reduction”.
